Assay results taken from the supplement of paper PMC6045584.

Assays:
Assay in all cases: area under dose-response curve of surviving fraction (unscaled, Aref=0) (surviving fraction x log10(nM)); higher = more resistant
Conditions in all cases: exposure time: 5 days; dose range 0.5-1000 nM
MK-1775 = compound: C=CCn1c(=O)c2cnc(Nc3ccc(N4CCN(C)CC4)cc3)nc2n1-c1cccc(C(C)(C)O)n1 [MK-1775]
Outline: (§1)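 Tumour cell lines in 384-well plates were exposed to eight inhibitor concentrations, from 0.5 to 1000 nM, for five days, and viability was read by CellTiter-Glo luminescence in three screens per line. Signals were normalised to DMSO-only wells, and 3-parameter logistic regression in the drc R package fitted dose-response survival curves to the surviving fractions. Area under the curve is given as the unscaled activity area. That area is taken over log10 dose with Aref = 0.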

AFIMOXIFENE = compound: CC/C(=C(\c1ccc(O)cc1)c1ccc(OCCN(C)C)cc1)c1ccccc1 [AFIMOXIFENE]
Outline: as §1

[1] = compound: CCc1cc(Nc2nccc(-c3c(-c4ccc(OC)c(C(=O)Nc5c(F)cccc5F)c4)nc4ccccn34)n2)c(OC)cc1N1CCC(N2CCN(S(C)(=O)=O)CC2)CC1
Outline: as §1

CABOZANTINIB = compound: COc1cc2nccc(Oc3ccc(NC(=O)C4(C(=O)Nc5ccc(F)cc5)CC4)cc3)c2cc1OC [CABOZANTINIB]
Outline: as §1

[2] = compound: COc1ccc(-c2cc3c(C)nc(N)nc3n([C@H]3CC[C@H](OCCO)CC3)c2=O)cn1
Outline: as §1

[3] = compound: C[C@@H]1CN(CC(=O)Nc2ccc3c(c2)Cc2cccc(-c4cc(=O)cc(N5CCOCC5)o4)c2S3)C[C@H](C)O1
Outline: as §1

[4] = compound: C[C@H](CN(C)C)Oc1nc(Nc2cc3cccc(Cl)c3cn2)cnc1C#N
Outline: as §1

BLEOMYCIN = compound: Cc1c(N)nc([C@H](CC(N)=O)NC[C@H](N)C(N)=O)nc1C(=O)N[C@H](C(=O)N[C@H](C)[C@@H](O)[C@H](C)C(=O)N[C@H](C(=O)NCCc1nc(-c2nc(C(=O)NCCC[S+](C)C)cs2)cs1)[C@@H](C)O)[C@@H](OC1OC(CO)C(O)C(O)C1OC1OC(CO)C(O)C(OC(N)=O)C1O)c1cnc[nH]1 [BLEOMYCIN]
Outline: as §1

IMATINIB = compound: Cc1ccc(NC(=O)c2ccc(CN3CCN(C)CC3)cc2)cc1Nc1nccc(-c2cccnc2)n1 [IMATINIB]
Outline: as §1

NILOTINIB = compound: Cc1cn(-c2cc(NC(=O)c3ccc(C)c(Nc4nccc(-c5cccnc5)n4)c3)cc(C(F)(F)F)c2)cn1 [NILOTINIB]
Outline: as §1

BEZ-235 = compound: Cn1c(=O)n(-c2ccc(C(C)(C)C#N)cc2)c2c3cc(-c4cnc5ccccc5c4)ccc3ncc21 [BEZ-235]
Outline: as §1

BMN-673 = compound: Cn1ncnc1[C@H]1c2n[nH]c(=O)c3cc(F)cc(c23)N[C@@H]1c1ccc(F)cc1 [BMN-673]
Outline: as §1

LENVATINIB = compound: COc1cc2nccc(Oc3ccc(NC(=O)NC4CC4)c(Cl)c3)c2cc1C(N)=O [LENVATINIB]
Outline: as §1

VORINOSTAT = compound: O=C(CCCCCCC(=O)Nc1ccccc1)NO [VORINOSTAT]
Outline: as §1

Test System	area under dose-response curve (MK-1775)	area under dose-response curve (AFIMOXIFENE)	area under dose-response curve [1]	area under dose-response curve (CABOZANTINIB)	area under dose-response curve [2]	area under dose-response curve [3]	area under dose-response curve [4]	area under dose-response curve (BLEOMYCIN)	area under dose-response curve (IMATINIB)	area under dose-response curve (NILOTINIB)	area under dose-response curve (BEZ-235)	area under dose-response curve (BMN-673)	area under dose-response curve (LENVATINIB)	area under dose-response curve (VORINOSTAT)
DU4475 BREAST	2.29	2.84	3.05	2.93	1.53	3.52	3.04	2.19	3.54	3.45	1.94	1.63	–	–
MDAMB453 BREAST	2.78	–	3.61	3.43	2.17	3.16	3.06	–	3.62	3.15	2.25	2.58	3.12	3.13
NOS1 BONE	1.79	3.91	3.75	2.96	2.25	–	2.6	2.66	–	2.94	2.32	2.26	2.79	–
SG28 HEADNECK	2.63	–	3.59	–	2.44	–	–	2.97	–	–	2.58	–	3.48	–
CME SYNOVIAL	–	4.56	–	3.92	2.55	–	4.25	1.51	–	–	–	0.962	–	–
HCC202 BREAST	2.67	–	4	–	2.16	3.04	–	–	–	–	2.62	–	–	2.75
CAL72 BONE	2.65	3.6	3.56	3.56	2.62	3.2	2.93	3.13	3.71	3.29	2.3	3.14	–	3.52
SG31 HEADNECK	2.93	3.88	3.44	3.45	2.18	3.26	–	2.62	–	3.85	2.43	–	3.43	–
SUM149.B1*.S BREAST	2.74	3.8	3.62	3.39	2.71	–	–	2.89	3.85	3.68	3.03	2.65	3.96	–
143B BONE	2.71	–	3.38	–	2.78	3.28	–	3.15	–	–	2.55	–	3.51	3.26
SNU475 LIVER	2.93	–	3.12	3.24	2.13	3.13	–	2.51	3.51	3.21	2.04	2.83	–	3.12
93VU HEADNECK	2.31	4.12	3.51	3.14	2.13	–	3.44	2.25	3.93	–	2.65	–	3.67	3.25
ZR751 BREAST	–	3.68	3.02	–	1.71	3.26	2.92	3.06	–	3.01	2.35	3.29	–	4.01
S68 BREAST	2.17	3.23	–	3.55	1.84	–	2.49	2.99	3.6	2.73	2.14	1.74	3.45	3.12
SCC003 HEADNECK	2.83	–	3.47	3.21	2.7	3.42	3.46	2.6	3.7	3.21	2.63	2.8	3.75	–
RDES SOFT TISSUE	2.98	3.94	3.71	3.82	2.91	–	4.28	2.68	–	–	–	2.03	3.93	3.64
VCAP PROSTATE	2.4	3.49	3.37	3.28	2.35	3.6	3.1	3.21	3.67	3.26	2.82	2.63	–	2.98
SG43 HEADNECK	–	–	3.51	2.63	1.92	–	2.79	2.58	3.35	4.68	2.72	2.45	3.03	3.27
SCC36 HEADNECK	2.66	–	3.23	3.43	2.62	3.05	3	2.48	3.55	3	2.98	2.52	3.67	3.13
HCC1954 BREAST	2.32	–	3.23	3.42	2.09	2.82	3.14	1.38	3.5	2.74	2.11	–	3.2	3.06
SAOS2 BONE	2.49	3.87	3.69	–	2.29	3.16	–	2.59	3.89	3.18	2.74	2.32	3.65	–
22RV1 PROSTATE	2.97	3.57	–	3.33	1.98	3.54	–	2.95	3.51	3.59	2.09	2.4	3.44	3.27
A549 LUNG	3.15	3.56	3.29	3.3	2.8	3.58	3.25	3.18	3.65	3.59	2.55	3.58	3.51	–
